Laboratory results from patent US20250236609A1, “VPS34 INHIBITORS AND METHODS OF USE THEREOF” (Deciphera Pharmaceuticals, LLC, priority 2023, published 2025).

How the values were obtained:
PI3KC2α = PI3KC2α (Homo sapiens (Human), UniProt O00443); experiment: Lipid kinase selectivity panel (Reaction Biology); type: biochemical; settings: 1 μM compound, single dose duplicates, 10 μM ATP; read-out: Percent inhibition relative to DMSO control, PI3KC2α
Experimental: (§1) The compounds of the present invention were tested in a standard lipid kinase selectivity panel: 16 other lipid kinases (Reaction Biology, Malvern, PA, USA), under conditions of non-disclosure, non-dissemination, and non-use. In brief, compounds (see Table 2) were tested at in single dose duplicates at 1 μM against lipid kinases, including PI3Kα, PI3Kβ, and PI3Kδ, and reactions were carried out at 10 μM ATP.

[1] = target: PI3K (p110α (E545K)/p85α) (Homo sapiens (Human), UniProt P42336, E545K); experiment: Lipid kinase selectivity panel (Reaction Biology); type: biochemical; settings: 1 μM compound, single dose duplicates, 10 μM ATP; read-out: Percent inhibition relative to DMSO control, PI3K (p110α (E545K)/p85α)
Sequence of PI3K (p110α (E545K)/p85α) (P42336 whole entry E545K): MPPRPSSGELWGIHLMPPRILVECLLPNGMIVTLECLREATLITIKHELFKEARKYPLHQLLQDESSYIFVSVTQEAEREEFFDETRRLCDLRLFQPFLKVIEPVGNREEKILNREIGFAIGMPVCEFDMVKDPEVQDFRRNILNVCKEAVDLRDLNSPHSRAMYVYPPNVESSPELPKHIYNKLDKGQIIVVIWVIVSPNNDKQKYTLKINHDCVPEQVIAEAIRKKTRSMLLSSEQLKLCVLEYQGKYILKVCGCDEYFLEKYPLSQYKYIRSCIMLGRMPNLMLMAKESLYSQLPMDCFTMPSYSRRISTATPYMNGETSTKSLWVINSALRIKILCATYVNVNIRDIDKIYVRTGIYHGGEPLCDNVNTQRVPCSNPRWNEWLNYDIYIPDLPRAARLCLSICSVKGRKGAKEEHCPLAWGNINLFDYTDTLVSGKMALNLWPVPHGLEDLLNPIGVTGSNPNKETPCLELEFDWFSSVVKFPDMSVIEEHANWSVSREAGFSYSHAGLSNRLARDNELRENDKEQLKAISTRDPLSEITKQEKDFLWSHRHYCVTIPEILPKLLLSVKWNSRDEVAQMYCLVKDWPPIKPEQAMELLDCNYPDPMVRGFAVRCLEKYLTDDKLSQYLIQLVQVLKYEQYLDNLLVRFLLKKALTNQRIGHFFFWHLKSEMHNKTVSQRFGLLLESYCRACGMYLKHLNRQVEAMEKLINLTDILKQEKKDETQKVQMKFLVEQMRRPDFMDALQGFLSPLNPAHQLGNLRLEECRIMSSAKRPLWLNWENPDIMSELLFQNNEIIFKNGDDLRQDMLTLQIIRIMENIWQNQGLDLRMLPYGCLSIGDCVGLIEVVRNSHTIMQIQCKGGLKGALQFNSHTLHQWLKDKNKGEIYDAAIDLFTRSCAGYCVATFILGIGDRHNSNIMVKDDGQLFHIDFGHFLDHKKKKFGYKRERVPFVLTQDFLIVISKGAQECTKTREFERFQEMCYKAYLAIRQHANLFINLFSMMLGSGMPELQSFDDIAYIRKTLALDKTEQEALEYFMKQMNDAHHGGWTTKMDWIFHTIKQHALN
Sequence of PI3K (p110α (E545K)/p85α) (P27986 whole entry partner): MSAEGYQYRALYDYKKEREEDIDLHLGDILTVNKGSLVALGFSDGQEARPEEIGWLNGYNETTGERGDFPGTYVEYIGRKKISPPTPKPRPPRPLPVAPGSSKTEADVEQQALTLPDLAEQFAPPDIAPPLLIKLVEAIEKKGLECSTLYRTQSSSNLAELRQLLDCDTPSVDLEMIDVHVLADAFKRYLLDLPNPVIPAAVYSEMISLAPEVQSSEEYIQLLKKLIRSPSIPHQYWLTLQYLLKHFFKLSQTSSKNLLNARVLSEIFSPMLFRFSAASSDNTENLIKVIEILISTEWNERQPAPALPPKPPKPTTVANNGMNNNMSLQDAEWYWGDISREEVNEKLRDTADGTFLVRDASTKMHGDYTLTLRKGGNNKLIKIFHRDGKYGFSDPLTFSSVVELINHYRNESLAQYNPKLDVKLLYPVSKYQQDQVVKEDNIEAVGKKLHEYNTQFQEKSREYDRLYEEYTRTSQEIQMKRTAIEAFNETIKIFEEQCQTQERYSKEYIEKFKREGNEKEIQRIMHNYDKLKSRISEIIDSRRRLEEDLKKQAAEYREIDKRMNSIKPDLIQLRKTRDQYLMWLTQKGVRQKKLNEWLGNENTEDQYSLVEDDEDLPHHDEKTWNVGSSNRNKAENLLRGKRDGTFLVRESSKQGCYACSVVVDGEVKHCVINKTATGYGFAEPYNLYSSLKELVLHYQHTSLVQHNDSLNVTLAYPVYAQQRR
Experimental: as §1

PI3Kb (p110β/p85α) = PI3Kb (p110β/p85α) (Homo sapiens (Human), UniProt P42338); experiment: Lipid kinase selectivity panel (Reaction Biology); type: biochemical; settings: 1 μM compound, single dose duplicates, 10 μM ATP; read-out: Percent inhibition relative to DMSO control, PI3Kb (p110β/p85α)
Experimental: as §1

PI3Kα (p110α/p85α) = PI3Kα (p110α/p85α) (Homo sapiens (Human), UniProt P42336); experiment: Lipid kinase selectivity panel (Reaction Biology); type: biochemical; settings: 1 μM compound, single dose duplicates, 10 μM ATP; read-out: Percent inhibition relative to DMSO control, PI3Kα (p110α/p85α)
Sequence of PI3Kα (p110α/p85α) (P42336 whole entry, species assumed): as the sequence (P42336 whole entry E545K) above, with K545E counted along it
Sequence of PI3Kα (p110α/p85α) (P27986 whole entry partner, species assumed): as the sequence (P27986 whole entry partner) above
Experimental: as §1

[2] = target: PI3K (p110α (E542K)/p85α) (Homo sapiens (Human), UniProt P42336, E542K); experiment: Lipid kinase selectivity panel (Reaction Biology); type: biochemical; settings: 1 μM compound, single dose duplicates, 10 μM ATP; read-out: Percent inhibition relative to DMSO control, PI3K (p110α (E542K)/p85α)
Sequence of PI3K (p110α (E542K)/p85α) (P42336 whole entry E542K): as the sequence (P42336 whole entry E545K) above, with E542K, K545E counted along it
Sequence of PI3K (p110α (E542K)/p85α) (P27986 whole entry partner): as the sequence (P27986 whole entry partner) above
Experimental: as §1

PI3Kg (p110γ) = PI3Kg (p110γ) (Homo sapiens (Human), UniProt P48736); experiment: Lipid kinase selectivity panel (Reaction Biology); type: biochemical; settings: 1 μM compound, single dose duplicates, 10 μM ATP; read-out: Percent inhibition relative to DMSO control, PI3Kg (p110γ)
Experimental: as §1

[3] = target: PI3K (p110α (H1047R)/p85α) (Homo sapiens (Human), UniProt P42336, H1047R); experiment: Lipid kinase selectivity panel (Reaction Biology); type: biochemical; settings: 1 μM compound, single dose duplicates, 10 μM ATP; read-out: Percent inhibition relative to DMSO control, PI3K (p110α (H1047R)/p85α)
Sequence of PI3K (p110α (H1047R)/p85α) (P42336 whole entry H1047R): as the sequence (P42336 whole entry E545K) above, with K545E, H1047R counted along it
Sequence of PI3K (p110α (H1047R)/p85α) (P27986 whole entry partner): as the sequence (P27986 whole entry partner) above
Experimental: as §1

PI3Kd (p110δ/p85α) = PI3Kd (p110δ/p85α) (Homo sapiens (Human), UniProt O00329); experiment: Lipid kinase selectivity panel (Reaction Biology); type: biochemical; settings: 1 μM compound, single dose duplicates, 10 μM ATP; read-out: Percent inhibition relative to DMSO control, PI3Kd (p110δ/p85α)
Sequence of PI3Kd (p110δ/p85α) (O00329 whole entry, species assumed): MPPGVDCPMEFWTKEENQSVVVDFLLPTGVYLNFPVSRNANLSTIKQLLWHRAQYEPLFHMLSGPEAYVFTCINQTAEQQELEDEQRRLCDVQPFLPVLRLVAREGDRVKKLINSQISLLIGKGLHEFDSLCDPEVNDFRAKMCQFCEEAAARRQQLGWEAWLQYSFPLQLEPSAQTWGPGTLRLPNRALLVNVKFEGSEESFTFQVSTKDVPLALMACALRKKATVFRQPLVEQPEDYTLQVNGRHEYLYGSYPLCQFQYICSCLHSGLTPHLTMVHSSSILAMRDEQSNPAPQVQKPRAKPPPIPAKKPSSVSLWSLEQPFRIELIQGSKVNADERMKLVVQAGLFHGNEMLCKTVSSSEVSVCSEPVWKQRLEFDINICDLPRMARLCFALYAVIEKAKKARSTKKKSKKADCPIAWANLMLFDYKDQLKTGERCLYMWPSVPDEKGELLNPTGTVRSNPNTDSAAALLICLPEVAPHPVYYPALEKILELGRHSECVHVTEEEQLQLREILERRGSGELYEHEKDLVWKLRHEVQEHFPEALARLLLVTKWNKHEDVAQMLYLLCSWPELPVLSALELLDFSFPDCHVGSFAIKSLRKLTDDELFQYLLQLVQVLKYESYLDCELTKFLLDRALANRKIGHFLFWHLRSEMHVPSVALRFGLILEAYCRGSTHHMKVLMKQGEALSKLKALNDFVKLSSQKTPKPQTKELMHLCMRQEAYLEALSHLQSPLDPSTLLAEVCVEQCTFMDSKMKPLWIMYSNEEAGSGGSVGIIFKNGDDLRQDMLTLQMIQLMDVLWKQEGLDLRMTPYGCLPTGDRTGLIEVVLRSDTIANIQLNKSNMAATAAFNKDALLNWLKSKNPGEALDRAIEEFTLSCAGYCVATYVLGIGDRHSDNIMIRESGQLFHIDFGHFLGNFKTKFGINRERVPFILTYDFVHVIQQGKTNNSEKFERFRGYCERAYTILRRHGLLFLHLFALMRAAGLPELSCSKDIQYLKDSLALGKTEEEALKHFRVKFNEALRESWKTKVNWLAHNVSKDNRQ
Sequence of PI3Kd (p110δ/p85α) (P27986 whole entry partner, species assumed): as the sequence (P27986 whole entry partner) above
Experimental: as §1

PI3K (p110α/p65α) = PI3K (p110α/p65α) (Homo sapiens (Human), UniProt P42336); experiment: Lipid kinase selectivity panel (Reaction Biology); type: biochemical; settings: 1 μM compound, single dose duplicates, 10 μM ATP; read-out: Percent inhibition relative to DMSO control, PI3K (p110α/p65α)
Sequence of PI3K (p110α/p65α) (P42336 whole entry, species assumed): as the sequence (P42336 whole entry E545K) above, with K545E counted along it
Experimental: as §1

VPS34 = VPS34 (Homo sapiens (Human), UniProt Q8NEB9); experiment: Biochemical Assay for VPS34 (ADP-Glo kinase activity assay); settings: 25 nM VPS34, 1 mM ATP, 1-hour incubation at 37° C.; read-out: VPS34 (Inhibition of biochemical activity of VPS34, IC50)
Experimental: Activity of VPS34 kinase was determined using an ADP-Glo kinase activity assay (Promega Corp). Assays were conducted in 384-well plates (5 μL assay volume) using 25 nM VPS34 (ThermoFisher Scientific), […] PI:3PS Lipid Kinase Substrate (Promega Corp.), and 1 mM ATP in kinase buffer. Inhibition of VPS34 was measured by adding serial diluted test compound (final assay concentration of 0.1% DMSO) followed by a 1-hour incubation at 37° C. ADP-Glo reagent was then added ([…]) followed by a 40 min incubation at rt. Kinase detection reagent was then added ([…]) and followed by a 60 min incubation at rt. Luminescence was then detected. The RLU at each compound concentration of was converted to percent inhibition using controls (i.e., reaction with no test compound and reaction with a known inhibitor) and IC50 values were calculated by fitting a four-parameter sigmoidal curve to the data using GeneData Screener software.
VPS34 Protein Sequence (Full Length with GST Tag)

Sequence of PI3KC2α (O00443 whole entry, species assumed): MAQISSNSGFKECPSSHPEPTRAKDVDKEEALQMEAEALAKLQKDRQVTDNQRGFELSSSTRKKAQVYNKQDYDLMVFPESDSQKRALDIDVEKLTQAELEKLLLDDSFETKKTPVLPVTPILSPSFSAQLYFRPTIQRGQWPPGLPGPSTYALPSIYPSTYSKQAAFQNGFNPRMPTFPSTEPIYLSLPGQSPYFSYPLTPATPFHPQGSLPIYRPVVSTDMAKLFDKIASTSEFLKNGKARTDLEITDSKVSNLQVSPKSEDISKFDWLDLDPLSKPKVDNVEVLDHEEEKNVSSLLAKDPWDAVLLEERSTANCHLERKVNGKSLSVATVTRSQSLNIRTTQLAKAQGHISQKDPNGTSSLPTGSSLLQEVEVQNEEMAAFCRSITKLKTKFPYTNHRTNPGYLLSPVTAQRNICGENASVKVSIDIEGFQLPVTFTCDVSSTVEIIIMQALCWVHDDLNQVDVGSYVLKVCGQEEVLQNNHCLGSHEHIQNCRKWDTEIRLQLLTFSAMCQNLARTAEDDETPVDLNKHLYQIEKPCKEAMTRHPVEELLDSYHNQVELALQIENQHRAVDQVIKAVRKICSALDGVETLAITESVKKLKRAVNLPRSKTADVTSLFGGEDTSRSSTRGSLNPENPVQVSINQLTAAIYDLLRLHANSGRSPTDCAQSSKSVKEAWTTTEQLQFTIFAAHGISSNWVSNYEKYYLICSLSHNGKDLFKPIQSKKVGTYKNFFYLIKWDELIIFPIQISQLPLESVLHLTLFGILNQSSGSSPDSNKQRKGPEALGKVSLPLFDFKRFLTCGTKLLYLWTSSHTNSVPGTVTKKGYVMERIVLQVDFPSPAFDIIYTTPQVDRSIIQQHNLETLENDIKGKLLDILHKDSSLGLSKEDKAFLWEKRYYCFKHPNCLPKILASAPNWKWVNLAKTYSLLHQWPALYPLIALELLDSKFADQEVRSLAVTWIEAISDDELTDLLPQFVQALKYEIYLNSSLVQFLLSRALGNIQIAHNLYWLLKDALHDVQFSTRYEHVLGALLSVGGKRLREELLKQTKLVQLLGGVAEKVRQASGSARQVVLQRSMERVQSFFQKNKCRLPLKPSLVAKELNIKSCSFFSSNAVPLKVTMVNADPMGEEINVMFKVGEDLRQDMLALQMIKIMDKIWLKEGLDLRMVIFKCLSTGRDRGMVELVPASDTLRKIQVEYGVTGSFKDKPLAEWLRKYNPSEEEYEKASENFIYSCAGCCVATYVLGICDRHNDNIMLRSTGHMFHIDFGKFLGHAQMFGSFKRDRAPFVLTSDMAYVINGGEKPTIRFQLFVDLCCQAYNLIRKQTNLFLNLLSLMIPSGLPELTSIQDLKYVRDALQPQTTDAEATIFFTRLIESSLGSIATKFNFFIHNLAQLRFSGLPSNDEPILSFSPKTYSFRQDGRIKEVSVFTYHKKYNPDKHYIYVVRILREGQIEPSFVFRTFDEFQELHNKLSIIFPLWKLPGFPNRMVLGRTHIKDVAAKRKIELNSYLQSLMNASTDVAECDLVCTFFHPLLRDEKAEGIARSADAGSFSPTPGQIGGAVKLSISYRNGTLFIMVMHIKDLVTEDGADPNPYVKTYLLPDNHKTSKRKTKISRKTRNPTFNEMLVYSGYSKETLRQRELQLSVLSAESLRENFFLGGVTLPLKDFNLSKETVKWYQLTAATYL

SMILES	inhibition at 1 µM (PI3KC2α) [%]	inhibition at 1 µM [1] [%]	inhibition at 1 µM (PI3Kb (p110β/p85α)) [%]	inhibition at 1 µM (PI3Kα (p110α/p85α)) [%]	inhibition at 1 µM [2] [%]	inhibition at 1 µM (PI3Kg (p110γ)) [%]	inhibition at 1 µM [3] [%]	inhibition at 1 µM (PI3Kd (p110δ/p85α)) [%]	inhibition at 1 µM (PI3K (p110α/p65α)) [%]	IC50 (VPS34) [nM]
CNCC(=O)Nc1cc(-c2cc(N3CCCC[C@@H]3C(F)(F)F)[nH]c(=O)c2)c(C)cn1 [Example 24]	2	-2	-9	-1	-4	-7	-17	-9	-6	100 to 500
Cc1cnc(NC(=O)CC2CNC2)cc1-c1cc(N2CCCC[C@@H]2C(F)(F)F)[nH]c(=O)c1 [Example 27]	0	1	-1	4	1	-8	-11	2	7	100 to 500
COC(=O)Nc1cc(-c2cc(N3CCCC[C@@H]3C(F)(F)F)[nH]c(=O)c2)c(C)cn1 [Example 1, methyl (R)-(5-methyl-2′-oxo-6′-(2-(trifluoromethyl)piperidin-1-yl)-1′,2′-dihydro-[4,4′-bipyridin]-2-yl)carbamate]	-1	15	13	22	4	12	10	9	5	≤ 100
COC(=O)Nc1cc(-c2cc(-c3cccnc3C(F)(F)F)[nH]c(=O)c2)c(F)cn1 [Example 5]	3	32	-6	17	32	23	35	58	15	100 to 500
COC(=O)Nc1cc(-c2cc(-c3cccnc3C(F)(F)F)[nH]c(=O)c2)c(N)cn1 [Example 15]	-26	-2	-4	-19	-11	16	10	-5	-12	100 to 500
CNC(=O)Nc1cc(-c2cc(N3CCCC[C@@H]3C(F)(F)F)[nH]c(=O)c2)c(C)cn1 [Example 10]	0	3	-12	-3	0	-16	-3	1	-23	100 to 500
O=C(Nc1cc(-c2cc(N3CCCC[C@@H]3C(F)(F)F)[nH]c(=O)c2)c(Cl)cn1)C1CC1 [Example 16]	-11	-8	-5	-24	-2	29	14	-2	-24	100 to 500
COC(=O)Nc1cc(-c2cc(N3CCCC[C@@H]3C(F)(F)F)[nH]c(=O)c2)c(CF)cn1 [Example 18]	-18	2	-3	-5	-1	-13	16	13	-2	100 to 500
Cc1cnc(NC(=O)CCN(C)C)cc1-c1cc(N2CCCC[C@@H]2C(F)(F)F)[nH]c(=O)c1 [Example 25]	-5	-1	-7	4	1	-4	-7	-7	0	100 to 500
Cc1cnc(NC(=O)CCN2CCCC2)cc1-c1cc(N2CCCC[C@@H]2C(F)(F)F)[nH]c(=O)c1 [Example 26]	4	-1	-10	-2	-2	-5	-8	-5	-4	100 to 500
Cc1cnc(NC(=O)C2CC2)cc1-c1cc(N2CCCC[C@@H]2C(F)(F)F)[nH]c(=O)c1 [Example 17]	-21	-5	-10	-15	-3	7	6	14	-17	≤ 100
COC(=O)Nc1cc(-c2cc(N3CCCC[C@@H]3C(F)(F)F)[nH]c(=O)c2)c(N)cn1 [Example 14]	-1	3	-9	-3	-5	11	0	-2	-7	≤ 100
Cc1nccc(Nc2cc(-c3cc(N4CCCC[C@@H]4C(F)(F)F)[nH]c(=O)c3)c(C)cn2)n1 [Example 77]	2	28	11	30	33	65	22	17	24	≤ 100
Cc1nccc(Nc2cc(-c3cc(-c4cccnc4C(F)(F)F)[nH]c(=O)c3)c(C)cn2)n1 [Example 38]	4	24	18	24	16	66	23	52	19	≤ 100
COC(=O)Nc1cc(-c2cc(N3CCCC[C@@H]3C)[nH]c(=O)c2)c(C)cn1 [Example 20]	5	-3	-9	-2	-5	-10	-11	-4	-11	100 to 500
COC(=O)Nc1cc(-c2cc(N3CCOC[C@@H]3C(F)(F)F)[nH]c(=O)c2)c(C)cn1 [Example 37]	–	–	–	–	–	–	–	–	–	≤ 100
CNCCC(=O)N1CCN(c2cc(-c3cc(NC(=O)OC)ncc3C)cc(=O)[nH]2)[C@@H](C)C1 [Example 60]	–	–	–	–	–	–	–	–	–	1000 to 10000
Cc1cnc(NC(=O)OC2CNC2)cc1-c1cc(N2CCCC[C@@H]2C(F)(F)F)[nH]c(=O)c1 [Example 54]	–	–	–	–	–	–	–	–	–	1000 to 10000
Cc1ccnc(Nc2cc(-c3cc(N4CCCC[C@@H]4C(F)(F)F)[nH]c(=O)c3)c(C)cn2)n1 [Example 72]	–	–	–	–	–	–	–	–	–	≤ 100
